Experiment [1] relates to human renal tubular cells. Put plainly: Intracellular Ca2+ concentration ([Ca2+]i) measurements as an assay of C-peptide activity. Type of experiment: cell-based. The settings on record: for [Ca2+]i response after preincubation of the cells with pertussis toxin: pertussis toxin 1 μg/ml for 4 h at 37° C. An excerpt:
Based on studies showing a C-peptide effect on the intracellular Ca^2+ concentration ([Ca^2+]) (Ohtomo et al., supra, Kunt et al., supra), an assay has been developed, for C-peptide activity, based on measuring [Ca^2+]i changes in human renal tubular cells, namely a rise in [Ca^2+]i.
The following peptides were used, all prepared by solid-phase peptide synthesis and purchased from Sigma (Genosys (Cambridge, UK): human C-peptide, scrambled C-peptide (with the same residues, but randomly ordered des (27-31) C-peptide and C-terminal pentapeptide (EGSLQ).
Human renal tubular cells were obtained from the outer cortex of renal tissues obtained from non-diabetic patients undergoing elective nephrectomy for renal cell carcinomas. The collection of the tissue samples during suegery was approved by the Ethics Committee of the Karolinska Hospital. The cells were cultured in RPMI 1640 (Life Technologies, Grand Island, N.Y.) supplemented with 10% fetal calf serum, 2 mM L-glutamine, 10 mM HEPES, benzylpenicillin (100 U/ml), and streptbmycin (100 U/ml). Cells were grown to confluency on cover slips in a six-well plate and starved in serum-free medium for 4 hours before experiments.
Changes in [Ca^2+1]1 were measured on cells attached to cover slips. The cells were loaded with 2 μM of the fluorescent Ca^2+ indicator fura-2/AM at 37° C. for 30 minutes in a buffer containing 115 mM NaCl, 24 mM NaHCO3, 4.7 mM KCl, 1.26 mM CaCl2 1.2 mM KH2PO4, 1.2 mM MgSOZ 11.1 mM glucose, 20 mM HEPES, and 5 mg/ml bovine serum albumin, pH 7.4. Cover slips were mounted as the bottom of an open chamber placed on a thermostatically controlled stage of an inverted epifluorescence microscope (Zeiss, Axiovert 135). The microscope was connected to a SPEX fluorolog-2 system for dual-wave-length excitation fluorimetry. The emissions of the two excitation wavelengths of 340 and 380 nm were used to calculate the fluorescence ratio (F340/F380) reflecting changes in [Ca^2+]i, [17]. Treatments during recordings were made using a perifusion system attached to the chamber. Changes in [Ca^2+]i were measured using an attached CCD camera that allowed recording of individual cells in the cell clusters. The influence of pertussis toxin was studied by preincubation of the cells with the toxin at 1 μg/ml for 4 h at 37° C.
In these peptides each or all of Glu 3, Glu 11 and Glu 27 of human C-peptide were replaced by Ala. In addition, all of Glu 3, Glu 11 and Glu 27 were replaced by Gln. The peptides were tested for C-peptide activity by monitoring for rises in [Ca^2+]i as described in Example 1.

The subject of experiment [2] is p44/42 MAP kinase (Erk1 and Erk2). Put plainly: Western blot of p44/42 MAP kinase phosphorylation in Swiss 3T3 cells. Type of experiment: cell-based, rat. The settings on record: Example 6, 1 nM peptide, 3 minutes at 37° C., FIG. 3. The procedure:
Swiss 3T3 cells, a […] fibroblast cell line, passage 6, were seeded 96 h before use in three 6-well plates. After 96 h, the cells in each well were confluent. The cultivation medium was Dulbecco's Modified Eagle Medium (DMEM) without sodium pyruvate, with pyridoxineHCl, 4500 mg/l glucose, 50 μg/ml gentamicin, and 10% foetal calf serum (FCS).
The cells were washed thoroughly with 37° C. starvation medium (cultivation medium as above without addition of FCS) and then kept in 1 ml 37° C. starvation medium for 2.5 h. 15 min. prior to the experiment, the buffer was changed to 37° C. Hanks' buffer (Gibco), and then kept in 37° C. […]
Protein content was determined in the collected supernatants using a BCA Protein Assay Reagent Kit (Pierce), including albumin standards. […]
The PVDF membranes were incubated with primary antibodies against (I) Phosphop44/42 MAP Kinase (Thr202/Tyr204) and (II) p44/42 MAP Kinase, respectively. […] The membranes were rinsed with TBS/T, and HRP activity on the membranes was detected with the SuperSignal® West Pico Chemiluminescent Substrate kit (Pierce).
Photographic films were exposed to the membranes, and bands of appropriate sizes on the resulting films were quantitated by densitometry, using a GS-710 Imaging Densitometer (Bio-Rad) and Quantity One software (Bio-Rad). […]

Read-outs that look alike come from different tables or passages of the source.

With “EAEDLQVGQVELGGGPGAGSLQPLALEGSLQ [human C-peptide]”, the “changes in [Ca2+]i (F340/F380 ratio)” value in experiment [1] (human renal tubular cells loaded with fura-2/AM, peptide 5 and 10 nM) is listed as “effect of 5 nM human C-peptide may be seen”. In addition, the “[Ca2+]i response after preincubation of the cells with pertussis toxin” value in experiment [1] is reported as “eliminated”.
Consider “EAEALQAAQAELGGGPGAGSLQPLALEGSLQ (EAEALQAAQAELGGGPGAGSLQPLALEGSLQ) [Alanine-rich C-peptide]”, for which, in experiment [2], the “capacity of phosphorylating p44/42 MAP kinase” value is reported as “did not decrease the biological activity”.
In the case of EGSLQ [C-terminal pentapeptide], in experiment [1], the “changes in [Ca2+]i (F340/F380 ratio)” value is reported as “Results similar to those with human C-peptide” and the “[Ca2+]i response after preincubation of the cells with pertussis toxin” value is recorded as “eliminated”.
Consider “EAEPLQPPQPELGGGPGAGSLQPLALEGSLQ [Proline-rich C-peptide]”, for which the “capacity of phosphorylating p44/42 MAP kinase” value in experiment [2] is recorded as “decrease in phosphorylating capacity”.
